# Experimental data from patent publication US8546403B2, “Compounds that modulate intracellular calcium” (Calcimedica, Inc., priority 2010, dated 2013).
# Assay: Microsomal stability of compounds (liver microsomes, LC/MS/MS)
# Type: in vitro ADME
# Details: 5 μM test compound, 1 mg/mL microsomal protein, 37° C. up to 60 minutes, species and Phase I / Phase I+II not given
# Method: Microsomal Stability of Compounds Described Herein
# Liver microsomes are purchased from XenoTech, LLC (Lenexa, Kans.). Other chemicals are obtained from Sigma-Aldrich (Milwaukee, Wis.). Solvents for LC/MS/MS mobile phases and disposable labware are obtained from various vendors.
# Study Protocol Phase I Only (Oxidative Metabolism in the Presence of NADPH-Regenerating System but without UDPGA):
# A mixture of the test compound and liver microsomes (475 μL total) are pre-incubated for 5 minutes at 37° C. The reactions are initiated by the addition of 25 μL of the co-factor NADPH regenerating system) and are allowed to proceed at 37° C. for up to 60 minutes. The final concentrations in the assay were: 5 μM test compound, 1 mg/mL microsomal protein, 1 mM NADP+, 5 mM glucose-6-phosphate and 1 U/mL glucose-6-phosphate dehydrogenase in 50 mM potassium phosphate (pH 7.4) containing 3.3 mM MgCl2 and 100 μM EDTA. […] At pre-determined time points, the reactions are terminated by removing 50 μL-aliquots and quenching them with […] of ACN mixture containing 0.5 μM of the internal standard (carbamazepine) to achieve protein precipitation. The samples are vortexed, centrifuged at 4000 rpm (3400 rcf) for 15 minutes, and clear supernatants are analyzed by LC/MS/MS.
# Phase I and II: (Oxidative Metabolism and Conjugation in the Presence of NADPH-Regenerating System and UDPGA):
# The reaction mixtures are prepared similar to what is described above, except 6.6 mM UDPGA, 6.25 μg/mL alamethicin, and 1.25 mM of D-Saccharic acid 1,4-lactone (final assay concentrations) are also added together with the NADPH-regenerating system. Midazolam and 4-methylumbelliferone are used as positive controls for Phase I and Phase II, respectively.
# Bioanalysis is conducted using a non-GLP LC/MS/MS method. Calibration curves are not generated and the ratios of the test compound peak area to the internal standard peak area are used to determine the relative amounts of test compound remaining at each time point.
row,SMILES,Microsomal t ½ (min)
1,O=C(Nc1cnc(-c2cc3c(cc2Cl)OC(F)(F)O3)cn1)c1cccc(F)c1F [Compound 18],Stable (Stable is defined herein as less than 10% degradation)
2,Cc1cc2c(cc1-c1ccc(NC(=O)c3c(F)cccc3F)nc1)OC(F)(F)O2 [Compound 21],Stable (Stable is defined herein as less than 10% degradation)
3,Cc1cc2c(cc1-c1ccc(NC(=O)c3c(F)cncc3F)nc1)OC(F)(F)O2 [Compound 35],Stable (Stable is defined herein as less than 10% degradation)
4,Cc1ccc(F)cc1C(=O)Nc1cnc(-c2cc3c(cc2Cl)OC(F)(F)O3)cn1 [Compound 19],Stable (Stable is defined herein as less than 10% degradation)
5,Cc1nnsc1C(=O)Nc1cnc(-c2cc3c(cc2Cl)OC(F)(F)O3)cn1 [Compound 14],Stable (Stable is defined herein as less than 10% degradation)
6,O=C(Nc1ccc(-c2cc3c(cc2Cl)OC(F)(F)O3)cn1)c1ccncc1Cl [Compound 8],Stable (Stable is defined herein as less than 10% degradation)
7,O=C(Nc1ccc(-c2cc3c(cc2Cl)OC(F)(F)O3)cn1)c1c(F)cccc1F [Compound 3],Stable (Stable is defined herein as less than 10% degradation)
8,Cc1cc2c(cc1-c1cnc(NC(=O)c3c(F)cccc3F)cn1)OC(F)(F)O2 [Compound 23],Stable (Stable is defined herein as less than 10% degradation)
9,CC(C)C(=O)Nc1ccc(-c2cc3c(cc2Cl)OC(F)(F)O3)cn1 [Compound 34],Stable (Stable is defined herein as less than 10% degradation)
10,Cc1ccccc1C(=O)Nc1cnc(-c2cc3c(cc2Cl)OC(F)(F)O3)cn1 [Compound 17],Stable (Stable is defined herein as less than 10% degradation)
11,Cc1cc2c(cc1-c1cnc(NC(=O)c3ccccc3F)cn1)OC(F)(F)O2 [Compound 25],Stable (Stable is defined herein as less than 10% degradation)
12,O=C(Nc1ccc(-c2cc3c(cc2Cl)OC(F)(F)O3)cn1)c1c(F)cncc1F [Compound 9],Stable (Stable is defined herein as less than 10% degradation)
13,O=C(Nc1cnc(-c2cc3c(cc2Cl)OC(F)(F)O3)cn1)c1ccccc1F [Compound 13],Stable (Stable is defined herein as less than 10% degradation)
14,Cc1cc2c(cc1-c1cnc(NC(=O)c3c(F)cncc3F)cn1)OC(F)(F)O2 [Compound 28],Stable (Stable is defined herein as less than 10% degradation)

# Same assay, conditions: pH 7.4, 5 μM test compound, 1 mg/mL microsomal protein, 37° C. up to 60 minutes, species and Phase I / Phase I+II not given, read-out: Microsomal t ½
row,SMILES,half-life at 5 μM [min]
1,Cc1cc2c(cc1-c1ccc(NC(=O)c3c(F)cccc3F)nc1)OCO2 [Compound 10],22
2,[2H]C1([2H])Oc2cc(C)c(-c3cnc(NC(=O)c4c(F)cccc4F)cn3)cc2O1 [Compound 16],17
3,Cc1ccccc1C(=O)Nc1ccc(-c2cc3c(cc2C)OC(F)(F)O3)cn1 [Compound 22],109
4,O=C(Nc1ccc(-c2cc3c(cc2Cl)OC(F)(F)O3)cn1)C1CCC1 [Compound 30],11
5,O=C(Nc1ccc(-c2cc3c(cc2Br)OCO3)cn1)c1c(F)cccc1F [Compound 1],6
6,Cc1ccccc1C(=O)Nc1cnc(-c2cc3c(cc2C)OC(F)(F)O3)cn1 [Compound 24],67
7,Cc1c(F)cccc1C(=O)Nc1cnc(-c2cc3c(cc2Cl)OC(F)(F)O3)cn1 [Compound 20],74
8,O=C(Nc1cnc(-c2cc3c(cc2Cl)OC(F)(F)O3)cn1)C1CCCC1 [Compound 29],38
9,O=C(Nc1ccc(-c2cc3c(cc2Cl)OC(F)(F)O3)cn1)c1ccncc1Cl [Compound 7],339
10,CCCC(=O)Nc1ccc(-c2cc3c(cc2Cl)OC(F)(F)O3)cn1 [Compound 32],19
11,O=C(Nc1ccc(-c2cc3c(cc2Br)OCO3)cc1)c1c(F)cccc1F [Compound 2],3
12,[2H]C1([2H])Oc2cc(C)c(-c3ccc(NC(=O)c4c(F)cccc4F)nc3)cc2O1 [Compound 15],36
13,O=C(Nc1ccc(-c2cc3c(cc2Cl)OC(F)(F)O3)cn1)c1ccncc1F [Compound 4],281
14,O=C(CCc1ccccc1)Nc1ccc(-c2cc3c(cc2Cl)OC(F)(F)O3)cn1 [Compound 31],26
15,O=C(Nc1ccc(-c2cc3c(cc2Cl)OC(F)(F)O3)cn1)C1CC1 [Compound 33],81
16,O=C(Nc1ccc(-c2cc3c(cc2Cl)OC(F)(F)O3)cn1)C1CCCC1 [Compound 27],40
17,Cc1ccc(F)cc1C(=O)Nc1cnc(-c2cc3c(cc2C)OC(F)(F)O3)cn1 [Compound 26],47
